Measurements taken from patent publication US10285982B2, “3-(1H-pyrrolo[2,3-B]pyridin-2-yl)-1H-pyrazolo[3,4-C]pyridines and therapeutic uses thereof” (Samumed, LLC, priority 2015, dated 2019).
pEC50: −log10 of the molar value.

Experiments:
SW480 colon cancer cells = assay: Cell viability assay (CellTiter-Blue); format: cell-based; details: Homo sapiens, 96 h, four days; for inhibition at 10 µM: given where EC50 >10 μM, read-out: percent inhibition at 10 μM
Summary of the method: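 Approximately 2×10^3 SW480 cells per well are seeded with compound (8 points, threefold steps, top 10 μM) and incubated four days at 37 °C. CellTiter-Blue is then added for about 3 h and fluorescence read. Non-linear regression gives EC50; for values beyond 10 μM, percent inhibition at that concentration is listed.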

[1] = test system: primary human fibroblasts derived from IPF patients (LL29 cells) treated with TGF-β1; assay: Inhibition of fibrotic process, αSMA staining in TGF-β1 treated LL29 fibroblasts; format: cell-based; details: Fibroblast; for pEC50: 96 h, % αSMA positive LL29 cells, TGF-β1 20 ng/mL, 4 days; for inhibition at 10 µM: given where EC50 >10 μM, αSMA, LL29 cells, TGF-β1, read-out: percent inhibition at 10 μM
Summary of the method: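 Compound dilutions from 10 μM down to […] are dispensed, LL29 cells added in F12 with 1% FBS, and TGF-β1 (20 ng/mL) follows after 1 h. After 4 days, live-cell αSMA positivity is measured by immunofluorescence and normalized to TGF-β1-treated wells to derive EC50.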

For c1cc(N2CCCCC2)c2cc(-c3n[nH]c4cnc(-c5cncc(CN6CCCC6)c5)cc34)[nH]c2n1 [Compound 182, 3-(4-(Piperidin-1-yl)-1H-pyrrolo[2,3-b]pyridin-2-yl)-5-(5-(pyrrolidin-1-ylmethyl)pyridin-3-yl)-1H-pyrazolo[3,4-c]pyridine], the inhibition at 10 µM (SW480 colon cancer cells) was 54.9%, the pEC50 (SW480 colon cancer cells) was < 5.00 and the pEC50 [1] was 5.35.

For Cc1ccncc1-c1cc2c(-c3cc4c(-c5ccncc5)ccnc4[nH]3)n[nH]c2cn1 [Compound 117, 5-(4-Methylpyridin-3-yl)-3-(4-(pyridin-4-yl)-1H-pyrrolo[2,3-b]pyridin-2-yl)-1H-pyrazolo[3,4-c]pyridine], the pEC50 (SW480 colon cancer cells) was 5.07 and the pEC50 [1] was 5.35.

In the case of CN(C)CCNc1cc(F)cc(-c2ccnc3[nH]c(-c4n[nH]c5cnc(-c6cncnc6)cc45)cc23)c1 [Compound 475, N^1-(3-Fluoro-5-(2-(5-(pyrimidin-5-yl)-1H-pyrazolo[3,4-c]pyridin-3-yl)-1H-pyrrolo[2,3-b]pyridin-4-yl)phenyl)-N^2,N^2-dimethylethane-1,2-diamine], the inhibition at 10 µM (SW480 colon cancer cells) was 17%, the pEC50 (SW480 colon cancer cells) was < 5.00 and the pEC50 [1] was < 5.00. For the same compound, the inhibition at 10 µM [1] was 27.5%.

For Fc1cccc(-c2ccnc3[nH]c(-c4n[nH]c5cnc(-c6cncc(OCc7ccccc7)c6)cc45)cc23)c1 [Compound 518, 5-(5-(Benzyloxy)pyridin-3-yl)-3-(4-(3-fluorophenyl)-1H-pyrrolo[2,3-b]pyridin-2-yl)-1H-pyrazolo[3,4-c]pyridine], the inhibition at 10 µM (SW480 colon cancer cells) was 41.5%, the pEC50 (SW480 colon cancer cells) was < 5.00 and the pEC50 [1] was < 5.00. For the same compound, the inhibition at 10 µM [1] was 27.5%.

For O=C(Nc1cncc(-c2cc3c(-c4cc5c(-c6ccncc6)ccnc5[nH]4)n[nH]c3cn2)c1)C1CCCCC1 [Compound 135, N-(5-(3-(4-(Pyridin-4-yl)-1H-pyrrolo[2,3-b]pyridin-2-yl)-1H-pyrazolo[3,4-c]pyridin-5-yl)pyridin-3-yl)cyclohexanecarboxamide], the inhibition at 10 µM (SW480 colon cancer cells) was 10.3%, the pEC50 (SW480 colon cancer cells) was < 5.00 and the pEC50 [1] was < 5.00. It also gave an inhibition at 10 µM [1] of 10.8%.

In the case of FC1(F)CCN(Cc2cncc(-c3cc4c(-c5cc6cccnc6[nH]5)n[nH]c4cn3)c2)C1 [Compound 278, 5-(5-((3,3-Difluoropyrrolidin-1-yl)methyl)pyridin-3-yl)-3-(1H-pyrrolo[2,3-b]pyridin-2-yl)-1H-pyrazolo[3,4-c]pyridine], the pEC50 (SW480 colon cancer cells) was 5.30 and the pEC50 [1] was 6.95.

With Nc1cncc(-c2cc3c(-c4cc5c(-c6ccccc6F)ccnc5[nH]4)n[nH]c3cn2)c1 [Compound 59, 5-(3-(4-(2-Fluorophenyl)-1H-pyrrolo[2,3-b]pyridin-2-yl)-1H-pyrazolo[3,4-c]pyridin-5-yl)pyridin-3-amine] the inhibition at 10 µM (SW480 colon cancer cells) was 16.4%, the pEC50 (SW480 colon cancer cells) was < 5.00 and the pEC50 [1] was 6.41.

In the case of CC(C)(C)C(=O)Nc1cncc(-c2cc3c(-c4cc5c(-c6cccnc6)ccnc5[nH]4)n[nH]c3cn2)c1 [Compound 92, N-(5-(3-(4-(Pyridin-3-yl)-1H-pyrrolo[2,3-b]pyridin-2-yl)-1H-pyrazolo[3,4-c]pyridin-5-yl)pyridin-3-yl)pivalamide], the inhibition at 10 µM (SW480 colon cancer cells) was 14.9%, the pEC50 (SW480 colon cancer cells) was < 5.00 and the pEC50 [1] was < 5.00. For the same compound, the inhibition at 10 µM [1] was 2.4%.

For Fc1cccc(-c2ccnc3[nH]c(-c4n[nH]c5cnc(-c6cncc(CN7CCCC7)c6)cc45)cc23)c1 [Compound 14, 3-(4-(3-Fluorophenyl)-1H-pyrrolo[2,3-b]pyridin-2-yl)-5-(5-(pyrrolidin-1-ylmethyl)pyridin-3-yl)-1H-pyrazolo[3,4-c]pyridine], the inhibition at 10 µM (SW480 colon cancer cells) was 13.3%, the pEC50 (SW480 colon cancer cells) was < 5.00 and the pEC50 [1] was 5.45.

For CC(C)(C)C(=O)Nc1cncc(-c2cc3c(-c4cc5c(-c6cccc(F)c6)ccnc5[nH]4)n[nH]c3cn2)c1 [Compound 8, N-(5-(3-(4-(3-Fluorophenyl)-1H-pyrrolo[2,3-b]pyridin-2-yl)-1H-pyrazolo [3,4-c]pyridin-5-yl)pyridin-3-yl)pivalamide], the pEC50 (SW480 colon cancer cells) was 6.14 and the pEC50 [1] was 7.48.

For c1cc(N2CCCCC2)c2cc(-c3n[nH]c4cnc(C5CCNCC5)cc34)[nH]c2n1 [Compound 601, 3-(4-(Piperidin-1-yl)-1H-pyrrolo[2,3-b]pyridin-2-yl)-5-(piperidin-4-yl)-1H-pyrazolo[3,4-c]pyridine], the inhibition at 10 µM (SW480 colon cancer cells) was 12%, the pEC50 (SW480 colon cancer cells) was < 5.00 and the pEC50 [1] was < 5.00. For the same compound, the inhibition at 10 µM [1] was 13%.

With O=C(Nc1cncc(-c2cc3c(-c4cc5c(N6CCCCC6)ccnc5[nH]4)n[nH]c3cn2)c1)C1CC1 [Compound 188, N-(5-(3-(4-(Piperidin-1-yl)-1H-pyrrolo[2,3-b]pyridin-2-yl)-1H-pyrazolo[3,4-c]pyridin-5-yl)pyridin-3-yl)cyclopropanecarboxamide] the pEC50 (SW480 colon cancer cells) was 5.89 and the pEC50 [1] was 5.75.

With CN1CCN(c2ccnc3[nH]c(-c4n[nH]c5cnc(-c6cn[nH]c6)cc45)cc23)CC1 [Compound 635, 3-(4-(4-Methylpiperazin-1-yl)-1H-pyrrolo[2,3-b]pyridin-2-yl)-5-(1H-pyrazol-4-yl)-1H-pyrazolo[3,4-c]pyridine] the inhibition at 10 µM (SW480 colon cancer cells) was 10.7%, the pEC50 (SW480 colon cancer cells) was < 5.00 and the pEC50 [1] was < 5.00. For the same compound, the inhibition at 10 µM [1] was 44.9%.

For CCNCc1cncc(-c2cc3c(-c4cc5c(-c6cccnc6)ccnc5[nH]4)n[nH]c3cn2)c1 [Compound 90, N-((5-(3-(4-(Pyridin-3-yl)-1H-pyrrolo[2,3-b]pyridin-2-yl)-1H-pyrazolo[3,4-c]pyridin-5-yl)pyridin-3-yl)methyl)ethanamine], the inhibition at 10 µM (SW480 colon cancer cells) was 16%, the pEC50 (SW480 colon cancer cells) was < 5.00 and the pEC50 [1] was 5.79.

O=C(Nc1cncc(-c2cc3c(-c4cc5c(-c6ccccc6F)ccnc5[nH]4)n[nH]c3cn2)c1)C1CCCCC1 [Compound 79, N-(5-(3-(4-(2-Fluorophenyl)-1H-pyrrolo[2,3-b]pyridin-2-yl)-1H-pyrazolo [3,4-c]pyridin-5-yl)pyridin-3-yl)cyclohexanecarboxamide] gave a pEC50 (SW480 colon cancer cells) of 5.46 and a pEC50 [1] of 5.87.

CN(C)CCNc1cc(F)cc(-c2ccnc3[nH]c(-c4n[nH]c5cnc(-c6ccncc6)cc45)cc23)c1 [Compound 466, N^1-(3-Fluoro-5-(2-(5-(pyridin-4-yl)-1H-pyrazolo[3,4-c]pyridin-3-yl)-1H-pyrrolo[2,3-b]pyridin-4-yl)phenyl)-N^2,N^2-dimethylethane-1,2-diamine] was tested, and the inhibition at 10 µM (SW480 colon cancer cells) was 16.8%, the pEC50 (SW480 colon cancer cells) was < 5.00 and the pEC50 [1] was 5.76.
